{"source": "patent US20190218613A1", "about": "“METHODS OF DETECTING THE FORMATION OF CELLULAR CLUSTERS OF RNA” (The Regents of the University of California, priority 2017, published 2019)", "key": {"[1]": {"test_system": "47× CAG RNA", "test": "In vitro RNA phase separation/gelation assay (fluorescence micrographs, index of dispersion)", "format": "biochemical", "settings": "for 47× CAG RNA clustering / gel formation in vitro: doxorubicin added to pre-formed clusters (37° C., 1 hour) or pre-mixed before annealing; for 47× CAG RNA clustering in vitro: 100 mM ammonium acetate (NH4OAc)", "protocol": "For phase separation/gelation assays, RNAs were diluted to concentrations of 0.5 ng/μL to 0.5 μg/μL in 10 mM Tris pH 7.0, 10 mM MgCl2, 25 mM NaCl buffer, unless indicated otherwise. Nuclease-free buffer stocks were purchased from Ambion. RNA was denatured at 95° C. for 3 minutes and cooled down at 1-4° C. per minute to 37° C. final temperature in a thermocycler and imaged immediately. Samples were visualized using a custom spinning disk confocal microscope (Nikon Ti-Eclipse equipped with a Yokogawa CSU-X spinning disk module) using a×100, 1.49 numerical aperture oil immersion objective and an air-cooled EM-CCD (electron multiplying charge-coupled device). The extent of phase separation/gelation was quantified by the index of dispersion (σ^2/μ) of fluorescence intensity per pixel (pixel size 83 nm×83 nm). Briefly, variance in the fluorescence intensity per image was determined, and normalized to the mean fluorescence intensity in the solution phase of the RNA. For dilute solution (<10% of imaging area occupied with clusters), this parameter reports the extent of inhomogeneity in the sample. At least 20 independent imaging areas (about 1,800 μm^2 each) were analyzed for each condition to achieve a representative measure across the sample. Each datum point in the bar graphs represents one imaging area. Data shown are representative of three or more independent replicates, across two or more independent RNA preparations.\nFor antisense DNA-mediated repression of RNA phase separation, 47×CAG RNA (200 ng/μL or 2.4 μM) was incubated with the ASO at 20 μM final concentration, followed by heat denaturation and annealing as described above. Doxorubicin was purchased from Cell Signaling Technology (catalogue number 5927). For in vitro experiments, doxorubicin was added to pre-formed RNA clusters, and samples were incubated at 37° C. for 1 hour. Alternatively, doxorubicin and RNA were pre-mixed at indicated concentrations before annealing. Similar results were obtained in both cases."}, "[2]": {"test_system": "47× CAG RNA foci in U-2OS cells", "test": "Live-cell reporter assay of RNA foci (MS2CP-YFP) in U-2OS cells", "format": "cell-based", "protocol": "(§1) A monoclonal U-20S cell line stably expressing Tet-On 3G transactivator protein (Clontech) and a tandem-dimeric MS2 hairpin binding protein tagged with enhanced YFP (MS2CP-YFP) was generated via sequential lentiviral infection and selection. This stable cell line was transduced with repeat-containing plasmids under doxycyclinetetracycline-inducible promoter. […] Cell lines were tested for mycoplasma contamination using a standard PCR kit (LookOut Mycoplasma PCR Detection Kit, Sigma) and verified routinely by live-cell DNA staining.\n(§2) RNA expression was induced by adding 1,000 ng/mL doxycycline for 12-48 hours, or as indicated. Before imaging, the culture medium was replaced with DMEM with 25 mM HEPES pH 7.5 or FluoroBrite DMEM (Invitrogen) with serum and antibiotics as listed above. For long-term imaging (>2 hours), cells were placed in a live-cell imaging chamber supplemented with 5% CO2. Cells were imaged using a spinning disk confocal microscope (Nikon Ti-Eclipse equipped with a Yokogawa CSU-X spinning disk module) using a×100, 1.49 numerical aperture oil immersion objective and an air-cooled EM-CCD. For each experimental condition, at least 30 randomly chosen cells were imaged and analyzed. Each datum point in the bar graphs represents one cell. Data shown are representative of three or more independent replicates.\n(§3) ATP depletion was achieved by rinsing cells twice in DMEM without glucose (Gibco), followed by incubation for 10 minutes in the ATP depletion medium (DMEM without glucose with 1% (v/v) dialyzed FBS (Gibco), 10 mM sodium azide and 6 mM 2-deoxy-D-glucose). Doxorubicin (stock, 10 mM in dimethylsulfoxide (DMSO)) was diluted to the desired concentration in cell culture medium and added to cells pre-induced with doxycycline for 24 hours. Cells were incubated with doxorubicin or an equivalent dilution of DMSO only as control, for 2 hours, and imaged as described above. Ammonium acetate (stock, 5 N) was diluted to 200 mM in cell culture medium. This intermediate dilution (2×) was added to cells pre-induced with doxycycline for 24 hours to achieve a final concentration of 100 mM of ammonium acetate. Cells were incubated in this medium for 10 minutes at 37° C. Normal cell culture medium was replaced after treatment, and cells were imaged immediately or 1 hour after medium replacement. For treatment with ASO, cells pre-induced with doxycycline for 48 hours were transfected with 100 nM final concentration of ASO using either Lipofectamine RNAiMAX (Invitrogen) or TranslT-Oligo Transfection Reagent (Mirius Bio) according to the manufacturers' recommended protocols. Similar results were obtained with both transfection reagents. Cells were imaged 12 hours after transfection.\n(§4) A fluorescence-intensity and size-based threshold was used to identify RNA foci. Briefly, U-2OS cells expressing the RNA of interest together with MS2CP-YFP were imaged using a spinning disk confocal microscope, and 0.3 μm Z-stacks were acquired. […] The nuclei were manually segmented, and the mean YFP fluorescence intensity in the nucleus was manually determined. RNA foci were identified using the FIJI 3D Objects Counter plugin, with an intensity threshold as 1.6x the mean fluorescence intensity in the nucleus of the cell, and a size cut-off of more than 50 adjoining pixels (pixel size, 83 nm×83 nm). […] This method was used to determine the number, volume, surface area, and the fluorescence intensity of the foci."}, "[3]": {"test_system": "29× GGGGCC RNA foci in U-2OS cells", "test": "Live-cell reporter assay of GGGGCC RNA foci in U-2OS cells", "format": "cell-based", "protocol": "as §1\nas §2, with “replicates. […]” for “replicates.”\nas §4, with “foci.” for “foci. Briefly, U-2OS cells expressing the RNA of interest together with MS2CP-YFP were imaged using a spinning disk confocal microscope, and 0.3 μm Z-stacks were acquired.”"}, "[4]": {"test_system": "nuclear speckles (SC-35)", "format": "cell-based", "protocol": "as §3, with “Similar results were obtained with both transfection reagents.” left out\nHybridization and wash buffers were purchased from Biosearch Technologies and used according to the manufacturer's protocol. For immunofluorescence detection of proteins, methanol-fixed cells were stained using antibodies against muscleblind-like-1 (MBNL1, Abcam, ab45899), hnRNP H (Abcam, ab10374), SC-35 (Abcam, ab11826), coilin (ab87913), fibrillarin (Abcam, ab5821), PML (Abcam, ab179466), and a corresponding Alexa Fluor 647-labelled secondary antibody (Invitrogen A-21236 or Invitrogen A-21244). Samples were co-stained with an anti-green fluorescent protein (GFP) booster antibody (GBA488, Bulldog Bio) to visualize RNA foci. After labelling, samples were mounted in Prolong Gold antifade medium (Thermo Scientific) and imaged using confocal microscopy as described above."}, "[5]": {"test_system": "47× CAG RNA foci in U-2OS cells", "test": "RNA FISH with probe against MS2 hairpin loops in U-2OS cells", "format": "cell-based", "protocol": "For RNA FISH in U-2OS cells, cells expressing the desired RNA (induced for 24 hours) were fixed with 2% paraformaldehyde for 10 minutes at room temperature and permeabilized by overnight incubation in 70% ethanol at 4° C. Alternatively, cells were fixed and permeabilized by incubation for 10 minutes in methanol with 10% (v/v) acetic acid. Similar results were obtained with both fixation protocols. Fixed and permeabilized cells were either used immediately, or stored in the permeabilization medium at −20° C. until needed. RNA was detected using Cy3-labelled DNA oligonucleotides designed against the MS2-hairpin sequence."}, "[6]": {"settings": "2.5 μM doxorubicin for 2 hours, listed as Doxorubicin"}}, "note": "“Also recorded” adds a separate entry of the source. Like-named read-outs stand apart in the source and are kept apart here.", "data": [{"compound": "[Cl-].[Na+]", "note": "[NaCl]", "values": [{"measurement": "clustering of 47× CAG RNA in presence of NaCl", "setting": "[1]; NaCl", "result": "inhibited"}]}, {"compound": "COc1cccc2c1C(=O)c1c(O)c3c(c(O)c1C2=O)C[C@@](O)(C(=O)CO)C[C@@H]3O[C@H]1C[C@H](N)[C@H](O)[C@H](C)O1", "note": "[doxorubicin]", "values": [{"measurement": "47× CAG RNA foci in cells", "setting": "[2]; 2.5 μM doxorubicin for 2 hours", "result": "specifically abrogated the 47× CAG RNA foci"}, {"measurement": "47× CAG RNA foci in cells", "setting": "[2]; [6]", "result": "potently dissolved the 47× CAG nuclear foci in cells"}, {"measurement": "concentration of doxorubicin required to disrupt RNA foci in cells", "setting": "[2]; U-2OS cells, 47× CAG", "result": 2.5, "unit": "µM"}, {"measurement": "29× GGGGCC RNA foci in cells", "setting": "[3]; doxorubicin", "result": "disrupting 29× GGGGCC RNA foci; also recorded: disrupted"}, {"measurement": "nuclear speckles", "setting": "[4]; 2.5 μM doxorubicin for 2 hours", "result": "not disrupted"}, {"measurement": "nuclear speckles", "setting": "[4]; [6]", "result": "without disrupting nuclear speckles"}, {"measurement": "47× CAG RNA foci by RNA FISH", "setting": "[5]; 2.5 μM doxorubicin", "result": "disrupted"}, {"measurement": "47× CAG RNA clustering / gel formation in vitro", "setting": "[1]", "result": "prevents 47× CAG RNA clustering"}, {"measurement": "47× CAG RNA clustering / gel formation in vitro", "setting": "[1]; listed as Doxorubicin", "result": "blocked the formation of CAG RNA gels in vitro; also recorded: disrupted 47× CAG RNA clustering in vitro in a dose-dependent manner"}, {"measurement": "concentration of doxorubicin needed to disrupt RNA clusters in the in vitro experiments", "setting": "[1]; in vitro", "result": "about 1 mM"}]}, {"compound": "CO[C@H]([C@H](O)CC(=O)[C@@H](C)[C@@H](O)CC[C@@H](C)[C@@H]1O[C@]2(CC[C@@H](C)[C@H](CC[C@H](C)C(C)=O)O2)CC[C@@H]1C)[C@H](OC(=O)C[C@@H](O)C1=C(C)C(=O)OC1=O)C(C)C", "note": "[tautomycin]", "values": [{"measurement": "47× CAG RNA foci in cells", "setting": "[2]; 2 μM tautomycin for 4 hours", "result": "disrupts the 47× CAG RNA foci; also recorded: disrupted"}, {"measurement": "nuclear speckles", "setting": "[4]; 2 μM tautomycin for 4 hours", "result": "disruption of nuclear speckles; also recorded: disrupted"}]}, {"compound": "CC(=O)O.N", "note": "[ammonium acetate]", "values": [{"measurement": "47× CAG RNA foci in cells", "setting": "[2]", "result": "disappearance of 47× CAG RNA foci within minutes; also recorded: disrupted"}, {"measurement": "29× GGGGCC RNA foci in cells", "setting": "[3]; NH4OAc, same cell before and 300 s after treatment", "result": "disrupted"}, {"measurement": "29× GGGGCC RNA foci in cells", "setting": "[3]; NH4OAc, same cell before and 300 s after treatment, listed as NH4OAc", "result": "disrupting 29× GGGGCC RNA foci"}, {"measurement": "nuclear speckles", "setting": "[4]", "result": "disrupted"}, {"measurement": "47× CAG RNA foci by RNA FISH", "setting": "[5]; 100 mM NH4OAc", "result": "disrupted"}, {"measurement": "47× CAG RNA clustering in vitro", "setting": "[1]", "result": "not observed"}, {"measurement": "47× CAG RNA clustering in vitro", "setting": "[1]; listed as NH4OAc", "result": "prevents 47× CAG RNA clustering"}]}]}
